Source: patent US7705030B2, “Amino-5-(5-membered)hetero-arylimidazolone compounds and the use thereof for β-secretase modulation” (Wyeth LLC, priority 2005, dated 2010)

How the values were obtained:
human BACE1 = human BACE1 (Homo sapiens, UniProt P56817); assay: Fluorescent kinetic assay: Evaluation of BACE-1 Binding Affinity of Test Compounds; assay type: biochemical; settings: 10 nM enzyme, 25 μM substrate WABC-6, 50 mM Na-Acetate pH 4.5, room temperature
Outline: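 Run with 10 nM human BACE1 and 25 μM WABC-6 FRET peptide in 50 mM Na-acetate pH 4.5, 0.05% CHAPS, 25% PBS at room temperature. Fluorescence (ex 320/em 420 nm) was read every 40 sec for 30 min, and initial cleavage rates were taken from linear slopes across ≥10 inhibitor concentrations.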

Chain of human BACE1 (P56817 46-501): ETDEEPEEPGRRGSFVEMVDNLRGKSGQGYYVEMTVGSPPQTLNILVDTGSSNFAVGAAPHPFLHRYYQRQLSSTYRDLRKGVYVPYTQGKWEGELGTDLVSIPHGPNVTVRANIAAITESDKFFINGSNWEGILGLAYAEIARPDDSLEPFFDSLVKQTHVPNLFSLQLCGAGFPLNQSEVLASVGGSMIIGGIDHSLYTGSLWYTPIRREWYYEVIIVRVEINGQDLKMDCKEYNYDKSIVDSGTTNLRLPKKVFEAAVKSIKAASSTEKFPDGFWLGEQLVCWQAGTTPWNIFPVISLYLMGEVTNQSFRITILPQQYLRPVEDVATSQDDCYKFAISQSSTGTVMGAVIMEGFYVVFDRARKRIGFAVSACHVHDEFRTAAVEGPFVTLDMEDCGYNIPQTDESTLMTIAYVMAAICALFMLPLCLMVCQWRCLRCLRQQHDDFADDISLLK

Structure (SMILES): CCC(=O)c1cc(C2(c3cccc(-c4cccnc4F)c3)N=C(N)N(C)C2=O)cn1C (stereo not drawn) [Example 180]
- melting point: 107 to 111 °C
- IC50 (human BACE1): 10 to 100 nM

Structure (SMILES): CCC(=O)c1cc(C2(c3cccc(-c4cccnc4F)c3)N=C(N)N(C)C2=O)cn1Cc1ccccc1 (stereo not drawn) [Example 181]
- melting point: 93 to 96 °C
- IC50 (human BACE1): 10 to 100 nM

Structure (SMILES): CCC(=O)c1cc(C2(c3cccc(-c4cccnc4F)c3)N=C(N)N(C)C2=O)cn1Cc1cscn1 (stereo not drawn) [Example 182]
- melting point: 116 to 120 °C
- IC50 (human BACE1): 10 to 100 nM

Structure (SMILES): CCC(=O)c1cc([C@]2(c3ccc(F)c(-c4cccnc4F)c3)N=C(N)N(C)C2=O)cn1CC [Example 183A, (5S)-2-Amino-5-(1-ethyl-5-propionyl-1H-pyrrol-3-yl)-5-[4-fluoro-3-(2-fluoropyridin-3-yl)phenyl]-3-methyl-3,5-dihydro-4H-imidazol-4-one]
- melting point: 114 to 116 °C
- IC50 (human BACE1): 10 to 100 nM

Structure (SMILES): COC(=O)c1cc([C@]2(c3ccc(F)c(-c4cccnc4F)c3)N=C(N)N(C)C2=O)cn1CCF [Example 184A, Methyl 4-{(4S)-2-amino-4-[4-fluoro-3-(2-fluoropyridin-3-yl)phenyl]-1-methyl-5-oxo-4,5-dihydro-1H-imidazol-4-yl}-1-(2-fluoroethyl)-1H-pyrrole-2-carboxylate]
- melting point: 111 to 113 °C
- IC50 (human BACE1): 10 to 100 nM

Structure (SMILES): CCC(=O)c1cc([C@]2(c3cccc(-c4cccnc4F)c3)N=C(N)N(C)C2=O)cn1CC [Example 185, (5S)-2-Amino-5-(1-ethyl-5-propionyl-1H-pyrrol-3-yl)-5-[3-(2-fluoropyridin-3-yl)phenyl]-3-methyl-3,5-dihydro-4H-imidazol-4-one]
- melting point: 94 to 97 °C
- IC50 (human BACE1): 10 to 100 nM

Structure (SMILES): CCn1cc([C@]2(c3ccc(F)c(-c4cccnc4F)c3)N=C(N)N(C)C2=O)cc1C(=O)OC [Example 186, Methyl 4-{(4S)-2-amino-4-[4-fluoro-3-(2-fluoropyridin-3-yl)phenyl]-1-methyl-5-oxo-4,5-dihydro-1H-imidazol-4-yl-}-ethyl-1H-pyrrole-2-carboxylate]
- melting point: 114 to 117 °C
- IC50 (human BACE1): 10 to 100 nM

Structure (SMILES): CCn1cc([C@]2(c3cccc(-c4cccnc4F)c3)N=C(N)N(C)C2=O)cc1C(C)=O [Example 187, (5S)-5-(5-Acetyl-1-ethyl-1H-pyrrol-3-yl)-2-amino-5-[3-(2-fluoropyridin-3-yl)phenyl]-3-methyl-3,5-dihydro-4H-imidazol-4-one]
- melting point: 109 to 111 °C
- IC50 (human BACE1): 10 to 100 nM

Structure (SMILES): CCn1cc(C2(c3ccc(F)c(-c4cccnc4F)c3)N=C(N)N(C)C2=O)cc1S(C)(=O)=O (stereo not drawn) [Example 188, 2-Amino-5-[1-ethyl-5-(methylsulfonyl)-1H-pyrrol-3-yl]-5-[4-fluoro-3-(2-fluoropyridin-3-yl)phenyl]-3-methyl-3,5-dihydro-4H-imidazol-4-one]
- melting point: 193 to 195 °C
- IC50 (human BACE1): 10 to 100 nM

Structure (SMILES): COC(=O)c1cc(C2(c3cccc(-c4ccc(F)nc4)c3)N=C(N)N(C)C2=O)cn1CCF (stereo not drawn) [Example 191]
- melting point: 206 to 210 °C
- IC50 (human BACE1): 10 to 100 nM

Structure (SMILES): COC(=O)c1cc(C2(c3cccc(-c4cc(F)ccc4F)c3)N=C(N)N(C)C2=O)cn1CCF (stereo not drawn) [Example 192]
- melting point: 166 to 170 °C
- IC50 (human BACE1): 10 to 100 nM

Structure (SMILES): COC(=O)c1cc(C2(c3cccc(-c4cc(F)cc(F)c4)c3)N=C(N)N(C)C2=O)cn1CCF (stereo not drawn) [Example 193]
- melting point: 173 to 176 °C
- IC50 (human BACE1): 10 to 100 nM

Structure (SMILES): COC(=O)c1cc(C2(c3cccc(-c4cccc(C#N)c4)c3)N=C(N)N(C)C2=O)cn1CCF (stereo not drawn) [Example 194]
- melting point: 98 to 101 °C
- IC50 (human BACE1): 10 to 100 nM

Structure (SMILES): COC(=O)c1cc(C2(c3cccc(-c4cc(C#N)ccc4F)c3)N=C(N)N(C)C2=O)cn1CCF (stereo not drawn) [Example 195]
- melting point: 147 to 150 °C
- IC50 (human BACE1): 10 to 100 nM

Structure (SMILES): COC(=O)c1cc(C2(c3cccc(-c4cccc(OC)c4)c3)N=C(N)N(C)C2=O)cn1CCF (stereo not drawn) [Example 196]
- melting point: 121 to 124 °C
- IC50 (human BACE1): 10 to 100 nM

Structure (SMILES): COC(=O)c1cc(C2(c3cccc(-c4ccc(F)c(F)c4)c3)N=C(N)N(C)C2=O)cn1CCF (stereo not drawn) [Example 198]
- melting point: 125 to 128 °C
- IC50 (human BACE1): 10 to 100 nM

Structure (SMILES): COC(=O)c1cc(C2(c3cccc(-c4ccc5c(c4)OCO5)c3)N=C(N)N(C)C2=O)cn1CCF (stereo not drawn) [Example 199]
- melting point: 137 to 140 °C
- IC50 (human BACE1): 110 to 1000 nM

Structure (SMILES): CCC(=O)c1cc(C2(c3cccc(-c4cccnc4F)c3)N=C(N)N(C)C2=O)cn1CC(F)(F)F (stereo not drawn) [Example 200, 2-Amino-5-[5-propionyl-1-(2,2,2-trifluoroethyl)-1H-pyrrol-3-yl]-5-[3-(2-fluoropyridin-3-yl)phenyl]-3-methyl-3,5-dihydro-4H-imidazol-4-one]
- melting point: 108 to 110 °C
- IC50 (human BACE1): 10 to 100 nM

Structure (SMILES): CCC(=O)c1cc(C2(c3cccc(-c4cncnc4)c3)N=C(N)N(C)C2=O)cn1CC(F)(F)F (stereo not drawn) [Example 201]
- melting point: 135 to 137 °C
- IC50 (human BACE1): 10 to 100 nM

Structure (SMILES): CCC(=O)c1cc(C2(c3cccc(-c4cccc(OC)c4)c3)N=C(N)N(C)C2=O)cn1CC(F)(F)F (stereo not drawn) [Example 202]
- melting point: 103 to 105 °C
- IC50 (human BACE1): 10 to 100 nM

Structure (SMILES): CCC(=O)c1cc(C2(c3cccc(-c4cc(F)cc(F)c4)c3)N=C(N)N(C)C2=O)cn1CC(F)(F)F (stereo not drawn) [Example 203]
- melting point: 104 to 106 °C
- IC50 (human BACE1): 10 to 100 nM

Structure (SMILES): CCC(=O)c1cc(C2(c3cccc(-c4cccc(Cl)c4)c3)N=C(N)N(C)C2=O)cn1CC(F)(F)F (stereo not drawn) [Example 204]
- melting point: 108 to 110 °C
- IC50 (human BACE1): 10 to 100 nM

Structure (SMILES): CCC(=O)c1cc(C2(c3cccc(-c4ccc(F)c(Cl)c4)c3)N=C(N)N(C)C2=O)cn1CC(F)(F)F (stereo not drawn) [Example 205]
- melting point: 107 to 108 °C
- IC50 (human BACE1): 10 to 100 nM

Structure (SMILES): CCC(=O)c1cc(C2(c3cccc(-c4cccc(C#N)c4)c3)N=C(N)N(C)C2=O)cn1CC(F)(F)F (stereo not drawn) [Example 206]
- melting point: 112 to 114 °C
- IC50 (human BACE1): 10 to 100 nM

Structure (SMILES): CCC(=O)c1cc(C2(c3ccc(F)c(-c4cccnc4F)c3)N=C(N)N(C)C2=O)cn1CC(F)(F)F (stereo not drawn) [Example 207]
- melting point: 122 to 124 °C
- IC50 (human BACE1): 10 to 100 nM

Structure (SMILES): CCC(=O)c1cc(C2(c3ccc(F)c(-c4cncnc4)c3)N=C(N)N(C)C2=O)cn1CC(F)(F)F (stereo not drawn) [Example 208]
- melting point: 225 to 226 °C
- IC50 (human BACE1): 10 to 100 nM

Structure (SMILES): CN1C(=O)C(c2cccc(-c3cncnc3)c2)(c2cc(C#N)n(C)c2)N=C1N (stereo not drawn) [Example 225, 4-[2-Amino-1-methyl-5-oxo-4-(3-pyrimidin-5-ylphenyl)-4,5-dihydro-1H-imidazol-4-yl]-1-methyl-1H-pyrrole-2-carbonitrile]
- melting point: 214 to 225 °C
- IC50 (human BACE1): 110 to 1000 nM

Structure (SMILES): CN1C(=O)C(c2cccc(-c3cccnc3F)c2)(c2cc(C#N)n(C)c2)N=C1N (stereo not drawn) [Example 226]
- melting point: 213 to 220 °C
- IC50 (human BACE1): 110 to 1000 nM

Structure (SMILES): CN1C(=O)C(c2cccc(-c3cc(F)cnc3Cl)c2)(c2cc(C#N)n(C)c2)N=C1N (stereo not drawn) [Example 227]
- melting point: > 225 °C
- IC50 (human BACE1): 110 to 1000 nM

Structure (SMILES): CN1C(=O)C(c2cccc(-c3cncnc3)c2)(c2cc(C#N)n(CCF)c2)N=C1N (stereo not drawn) [Example 228]
- melting point: 193 to 194 °C
- IC50 (human BACE1): 110 to 1000 nM

Structure (SMILES): CCCn1cc(C2(c3cccc(-c4cncnc4)c3)N=C(N)N(C)C2=O)cc1C#N (stereo not drawn) [Example 229]
- melting point: 165 to 166 °C
- IC50 (human BACE1): 10 to 100 nM

Structure (SMILES): CCCn1cc(C2(c3cccc(-c4cccnc4F)c3)N=C(N)N(C)C2=O)cc1C#N (stereo not drawn) [Example 230]
- melting point: 187 to 188 °C
- IC50 (human BACE1): 10 to 100 nM

Structure (SMILES): CN1C(=O)C(c2cccc(-c3cccnc3F)c2)(c2cc(C#N)n(CCF)c2)N=C1N (stereo not drawn) [Example 231]
- melting point: 175 to 177 °C
- IC50 (human BACE1): 10 to 100 nM

Structure (SMILES): CCCn1cc(C2(c3cccc(-c4cc(F)cnc4Cl)c3)N=C(N)N(C)C2=O)cc1C#N (stereo not drawn) [Example 232]
- melting point: 132 to 134 °C
- IC50 (human BACE1): 110 to 1000 nM

Structure (SMILES): CCn1cc(C2(c3cccc(-c4cccnc4F)c3)N=C(N)N(C)C2=O)cc1C=O (stereo not drawn) [Example 233, 4-[2-amino-4-[3-(2-fluoropyridin-3-yl)phenyl]-1-methyl-5-oxo-4,5-dihydro-1H-imidazol-4-yl]-1-ethyl-1H-pyrrole-2-carbaldehyde]
- melting point: 198 to 201 °C
- IC50 (human BACE1): 10 to 100 nM

Structure (SMILES): CN1C(=O)C(c2cccc(-c3cccnc3F)c2)(c2cc(C=O)n(CCF)c2)N=C1N (stereo not drawn) [Example 234, 4-[2-Amino-4-[3-(2-fluoropyridin-3-yl)phenyl]-1-methyl-5-oxo-4,5-dihydro-1H-imidazol-4-yl]-1-(2-fluoroethyl)-1H-pyrrole-2-carbaldehyde]
- melting point: 218 to 221 °C
- IC50 (human BACE1): 10 to 100 nM

Structure (SMILES): CCN(CC)Cc1cc(C2(c3cccc(-c4cccnc4F)c3)N=C(N)N(C)C2=O)cn1CCF (stereo not drawn) [Example 235, 2-Amino-5-[5-[(diethylamino)methyl]-1-(2-fluoroethyl)-1H-pyrrol-3-yl]-5-[3-(2-fluoropyridin-3-yl)phenyl]-3-methyl-3,5-dihydro-4H-imidazol-4-one]
- melting point: 121 to 140 °C
- IC50 (human BACE1): > 1000 nM

Structure (SMILES): CC(C)NCc1cc(C2(c3cccc(-c4cccnc4F)c3)N=C(N)N(C)C2=O)cn1CCF (stereo not drawn) [Example 236]
- melting point: 98 to 99 °C
- IC50 (human BACE1): > 1000 nM

Structure (SMILES): CN1C(=O)C(c2cccc(-c3cccnc3F)c2)(c2cc(CN3CCCC3)n(CCF)c2)N=C1N (stereo not drawn) [Example 237]
- melting point: 110 to 120 °C
- IC50 (human BACE1): > 1000 nM

Structure (SMILES): CN(C)Cc1cc(C2(c3cccc(-c4cccnc4F)c3)N=C(N)N(C)C2=O)cn1CCF (stereo not drawn) [Example 238]
- melting point: 118 to 121 °C
- IC50 (human BACE1): 110 to 1000 nM

Structure (SMILES): CCn1cc(C2(c3cccc(-c4cccnc4F)c3)N=C(N)N(C)C2=O)cc1CO (stereo not drawn) [Example 239, 2-Amino-5-[1-ethyl-5-(hydroxymethyl)-1H-pyrrol-3-yl]-5-[3-(2-fluoropyridin-3-yl)phenyl]-3-methyl-3,5-dihydro-4H-imidazol-4-one]
- melting point: 170 to 172 °C
- IC50 (human BACE1): 10 to 100 nM

Structure (SMILES): CCC(O)c1cc(C2(c3cccc(-c4cccnc4F)c3)N=C(N)N(C)C2=O)cn1CC (stereo not drawn) [Example 240, 2-Amino-5-[1-ethyl-5-(1-hydroxypropyl)-1H-pyrrol-3-yl]-5-[3-(2-fluoropyridin-3-yl)phenyl]-3-methyl-3,5-dihydro-4H-imidazol-4-one]
- melting point: 115 to 121 °C
- IC50 (human BACE1): 110 to 1000 nM
